Data set [1] concerns d-amphetamine lethality in mice. The experiment in a line: block of lethal effects of d-amphetamine in aggregated mice (modified procedure of Burn and Hobbs). The data set is classed as in vivo. As to conditions: Mus musculus. The source says:
Intern. Pharmacodyn. 113: 290 (1958).
Effects of different pretreatment time intervals
on d-amphetamine lethality in mice

Data set [2] in a line: acute toxicity (72 hour LD50) in mice. As to conditions: mouse, in vivo, IP, read-out: 72 hour LD50 (95% Confidence Limits).
[3] abbreviates: IP, mice, 1 hr. pretreatment, read-out: Protective ED50 (95% confidence limits).
Where [4] appears, read: IP, mice, 4 hrs. pretreatment, read-out: Protective ED50 (95% confidence limits).
[5] abbreviates: IP, mice, 8 hrs. pretreatment, read-out: Protective ED50 (95% confidence limits).
Setting [6] is: IP, mice, 16 hrs. pretreatment, read-out: Protective ED50 (95% confidence limits).

Counter-ions that a name gives are not always drawn. Like-named read-outs stand apart in the source and are kept apart here.

What is called ED50 is the midpoint of the dose-response relation. As a reminder, the LD50 is the dose at which mortality reaches 50%. `O=C(c1ccc(F)cc1)C1CCN(CCCN2c3ccccc3Sc3ccc(Cl)cc32)CC1` [Example 7, 2-Chloro-10-[3-(4-p-fluorobenzoylpiperidinyl)propyl] phenothiazine Hydrochloride Hydrate (1:4)]: the median effective dose (ED50) in data set [1] (ip, running text: administered I.P. in mice, after 16 hours, read-out: ED50) amounted to 0.72 mg/kg; in data set [1] (setting [3]), 0.17 mg/kg; in data set [1] (setting [4]), 0.53 mg/kg; in data set [1] (setting [5]) it was 0.19 mg/kg; in data set [1] (setting [6]), 0.72 mg/kg. Also, in data set [2], the median lethal dose (LD50) at 72 h came to 248 mg/kg.

As for `O=C(c1ccc(F)cc1)C1CCN(CCCN2c3ccccc3Sc3ccccc32)CC1` [Example 1, 10-[3-(4-p-Fluorobenzoylpiperidinyl)propyl]phenothiazine Fumarate Hydrate (1:4)], the ED50 worked out at 0.94 mg/kg in data set [1] (setting [3]), 0.35 mg/kg in data set [1] (setting [4]), 1.27 mg/kg in data set [1] (setting [5]) and 12.1 mg/kg in data set [1] (setting [6]). Further, in data set [2], the median lethal dose (LD50) at 72 h came to 330 mg/kg.

On to `CC(=O)c1ccc2c(c1)N(CCCN1CCC(C(=O)c3ccc(F)cc3)CC1)c1ccccc1S2` [Example 6, 2-Acetyl-10-[3-(4-p-fluorobenzoylpiperidiny)propyl] phenothiazine Difumarate Sesquihydrate], for which the 50% effective dose (ED50) came to 0.14 mg/kg in data set [1] (setting [3]), 0.1 mg/kg in data set [1] (setting [4]), 0.06 mg/kg in data set [1] (setting [5]) and 0.76 mg/kg in data set [1] (setting [6]). In data set [2], the LD50 at 72 h came out at 287 mg/kg.

On to `O=C(c1ccc(F)cc1)C1CCN(CCCN2c3ccccc3Sc3ccc(C(F)(F)F)cc32)CC1` [Example 4, 2-Trifluoromethyl-10-[3-(4-p-fluorobenzoylpiperidinyl)propyl]phenothiazineFumarate], for which the ED50 in data set [1] (setting [3]) came out at 1.44 mg/kg; in data set [1] (setting [4]) it was 3.5 mg/kg; in data set [1] (setting [5]) it was 1.4 mg/kg; in data set [1] (setting [6]) it was 1.89 mg/kg. Also, the LD50 at 72 h in data set [2] was determined as 317 mg/kg.

These data come from patent US4021552A, “10-[ω-(BENZOYLPIPERIDINYL)ALKYL]PHENOTHIAZINES” (A. H. Robins Company, Incorporated, priority 1976, dated 1977).
